The values below come from US11603524B2 (priority 2015, dated 2023).

Series [1] deals with T1, Bce, oxalate decarboxylase from Bacillus cereus, SEQ ID NO: 1 (Bacillus cereus, UniProt Q81GZ6). Briefly: Enzyme kinetics, oxalate degradation by Bce OxDC. The conditions noted are these: pH 3.0 and below.
In series [2] the test system is oxalate decarboxylase (OxDC) enzymes of Table 5. The series can be described thus: Catalytic efficiency of the OxDC enzymes (range). The conditions noted are these: see Table 5. It is filed as biochemical. As to the method: (§1) The enzyme kinetics of OxDC from four different species, Bce, Bcl, Cb6301_D29, and A8 were measured and compared to known kinetic data of YvrK. […] The reaction was terminated by adding 2.5N H2SO4, and analyzed for formate content by HPLC, as described in Example 1. The reaction without oxalate was included as negative control. The initial reaction rates during the first 5 minutes were determined for substrate concentrations between 0.024-12.5 mM, using same procedure described in Example 1.

Series [3] deals with YvrK, oxalate decarboxylase from Bacillus subtilis, SEQ ID NO: 47. The conditions noted are these: cited from earlier work.
Series [4] deals with T2, Cb6301, oxalate decarboxylase from Synechococcus elongates 6301, SEQ ID NO: 2 (Synechococcus elongatus, UniProt A0A0H3K3X3).
T2 construct: native trimer; the kinetic measurement was probably on the D29 form
T2 sequence (A0A0H3K3X3 1-389): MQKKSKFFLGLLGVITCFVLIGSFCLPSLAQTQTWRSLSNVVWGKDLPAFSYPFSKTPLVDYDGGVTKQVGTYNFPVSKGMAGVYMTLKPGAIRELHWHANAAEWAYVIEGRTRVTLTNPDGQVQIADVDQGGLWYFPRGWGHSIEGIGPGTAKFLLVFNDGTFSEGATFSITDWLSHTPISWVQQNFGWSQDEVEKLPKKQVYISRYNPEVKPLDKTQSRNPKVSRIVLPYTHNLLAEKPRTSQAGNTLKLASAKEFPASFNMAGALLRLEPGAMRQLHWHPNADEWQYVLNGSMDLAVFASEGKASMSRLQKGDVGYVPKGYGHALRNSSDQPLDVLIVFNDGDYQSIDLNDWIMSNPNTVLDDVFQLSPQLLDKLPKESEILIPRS
The series can be described thus: Enzyme kinetics, oxalate, Cb6301 OxDC. The conditions noted are these: Cb6301, pH 3.0 and below. It is filed as biochemical. Here is the method: as §1

Series [5] addresses T3, A8/A0, oxalate decarboxylase from Agrocybe aegerita, SEQ ID NO: 42 (Cyclocybe aegerita, UniProt A0A8S0X585).
T3 construct: A0 from fungal cells (homogenate), A8 from culture supernatant of A. aegerita; A8 also recombinant in E. coli (pColdIV, pOTIpr or pET)
T3 sequence (A0A8S0X585 with tags, fused parts or gaps): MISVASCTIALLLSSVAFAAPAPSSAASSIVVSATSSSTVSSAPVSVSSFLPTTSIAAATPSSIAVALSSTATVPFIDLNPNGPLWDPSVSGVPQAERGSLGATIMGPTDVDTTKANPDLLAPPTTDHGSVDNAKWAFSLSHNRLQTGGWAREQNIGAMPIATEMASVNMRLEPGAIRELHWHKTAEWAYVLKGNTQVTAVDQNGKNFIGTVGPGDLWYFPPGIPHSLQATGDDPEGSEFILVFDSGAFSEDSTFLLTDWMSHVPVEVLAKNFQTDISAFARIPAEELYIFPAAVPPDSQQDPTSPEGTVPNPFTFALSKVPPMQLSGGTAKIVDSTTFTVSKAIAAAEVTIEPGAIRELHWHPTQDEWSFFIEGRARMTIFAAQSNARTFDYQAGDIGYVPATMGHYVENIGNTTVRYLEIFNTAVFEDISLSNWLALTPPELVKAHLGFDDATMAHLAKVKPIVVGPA
Briefly: Enzyme kinetics, oxalate degradation by A8/A0 OxDC. The format is biochemical. As to the method:
(§2) The enzyme kinetics of OxDC from four different species, Bce, Bcl, Cb6301_D29, and A8 were measured and compared to known kinetic data of YvrK. […] The A8 enzyme was measured at four independent pH's of: 5.0, 4.0, 3.5 and 3.0. […] The reaction was terminated by adding 2.5N H2SO4, and analyzed for formate content by HPLC, as described in Example 1. The reaction without oxalate was included as negative control. The initial reaction rates during the first 5 minutes were determined for substrate concentrations between 0.024-12.5 mM, using same procedure described in Example 1.
(§3) To determine the kinetic parameters, kcat and Km, the reaction rates v0 at different substrate concentration [S] were fit to Michaelis-Menten equation in KaleidaGraph software: v0=kcat*[E]t*[S]/(Km+[S])
(§4) Unprotonated glutamic acids in an undisrupted active site are more likely to be kept unprotonated than the equivalent residues in a disrupted active site (such as the active site of a disrupted hexamer).

In series [6] the test system is oxalate decarboxylases A8, Cb6301, Cb6312, Cb6803 and Bce. The series can be described thus: Affinity for oxalate of A8, Cb6301, Cb6312, Cb6803 and Bce (range). It is filed as biochemical. As to the method:
as §1

Series [7] concerns O=C(O)C(=O)O. The series can be described thus: purified protein, by the assay type. The conditions noted are these: other: Bce, pH 3.0, 37° C.
For series [8], the target named is T1, Bce, oxalate decarboxylase from Bacillus cereus, SEQ ID NO: 1. The conditions noted are these: 2 mM chemical, 6 days at 40° C., pH 9.5, tested at pH 3, against Bce 40° C. control.
Substrate in series [9]: O=C(O)C(=O)O
Briefly: purified protein, by the assay type. The format is biochemical, Agrocybe aegerita. As to the method:
as §2, §3, §4

Substrate in series [10]: O=C(O)C(=O)O
The series can be described thus: purified protein, by the assay type. The format is biochemical, Synechococcus elongates 6301. The conditions noted are these: other: Cb6301_D29, oxalate, pH 3.0, 37° C. Here is the method: as §2, §3

Substrate in series [11]: O=C(O)C(=O)O
Briefly: purified protein, by the assay type. The format is biochemical, Bacillus clausii. The conditions noted are these: other: Bcl, oxalate, pH 3.0, 37° C.

[12] abbreviates: other: A8, pH 3.0, 37° C., pH 3.0, 37.0 °C.

Where two headings read alike, the source gives them in different places. Bounds are passed on as bounds.

T1 sequence (Q81GZ6 entry or part of it): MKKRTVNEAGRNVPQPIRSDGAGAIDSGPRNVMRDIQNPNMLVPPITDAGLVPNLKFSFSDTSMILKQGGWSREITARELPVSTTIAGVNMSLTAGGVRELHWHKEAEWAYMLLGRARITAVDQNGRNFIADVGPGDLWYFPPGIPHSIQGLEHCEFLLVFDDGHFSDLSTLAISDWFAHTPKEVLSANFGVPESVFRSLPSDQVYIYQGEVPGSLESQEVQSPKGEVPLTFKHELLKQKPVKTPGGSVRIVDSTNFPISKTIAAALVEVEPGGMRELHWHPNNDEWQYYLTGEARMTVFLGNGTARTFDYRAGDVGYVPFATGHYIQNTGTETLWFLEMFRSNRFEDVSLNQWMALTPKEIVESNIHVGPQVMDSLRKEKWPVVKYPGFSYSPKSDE

With `O=C(O)C(=O)O` [oxalate], the Km in series [1] is under 1000 µM; in series [3] (YvrK, oxalate, pH 4.2, 22° C.) it was 8400 µM; in [3] (YvrK, pH 4.0), 8400 µM; in series [3] (Yvrk, pH not given) it was 8400 µM; in series [4], under 1000 µM; in series [5] (A8/A0, pH 3.0 and below) it was under 1000 µM. The Km in series [6] was in the range of 80 to 500 µM. In [2], the catalytic efficiency is listed as 871-77000 conversions/M/s. Further, the kcat in series [3] (YvrK, pH 4.2, 22° C.) was 53 s⁻¹. Moreover, the kcat/KM in [3] (YvrK, pH 4.2, 22° C.) was 6310 M⁻¹ s⁻¹. Also, the “Km as a function of pH” value in [5] (A8, pH 5.0, 4.0, 3.5 and 3.0) is “decreases as the pH becomes more acidic”.
Regarding “Bce, oxalate decarboxylase from Bacillus cereus, SEQ ID NO: 1 (Bacillus cereus ATCC 14579)”, in series [7], the kcat is 11.2 s⁻¹ and the kcat/Km came to 35000 M⁻¹ s⁻¹.
For the molecule `O=C(O)CN(CCN(CC(=O)O)CC(=O)O)CC(=O)O` [EDTA], the enzyme activity result in series [8] is recorded as “decreases significantly”.

B1: A8/A0, oxalate decarboxylase from Agrocybe aegerita, SEQ ID NO: 42 (Cyclocybe aegerita) (protein)
chain: MISVASCTIALLLSSVAFAAPAPSSAASSIVVSATSSSTVSSAPVSVSSFLPTTSIAAATPSSIAVALSSTATVPFIDLNPNGPLWDPSVSGVPQAERGSLGATIMGPTDVDTTKANPDLLAPPTTDHGSVDNAKWAFSLSHNRLQTGGWAREQNIGAMPIATEMASVNMRLEPGAIRELHWHKTAEWAYVLKGNTQVTAVDQNGKNFIGTVGPGDLWYFPPGIPHSLQATGDDPEGSEFILVFDSGAFSEDSTFLLTDWMSHVPVEVLAKNFQTDISAFARIPAEELYIFPAAVPPDSQQDPTSPEGTVPNPFTFALSKVPPMQLSGGTAKIVDSTTFTVSKAIAAAEVTIEPGAIRELHWHPTQDEWSFFIEGRARMTIFAAQSNARTFDYQAGDIGYVPATMGHYVENIGNTTVRYLEIFNTAVFEDISLSNWLALTPPELVKAHLGFDDATMAHLAKVKPIVVGPA
notes: A0 from fungal cells (homogenate), A8 from culture supernatant of A. aegerita; A8 also recombinant in E. coli (pColdIV, pOTIpr or pET)
Take B1: the Km in series [9] (other: A0, pH not given) turned out to be 80 µM. In addition, in series [9] (setting [12]), the kcat turned out to be 42 s⁻¹ and the kcat/Km was found to be 525000 M⁻¹ s⁻¹.

B2: Cb6301_D29, oxalate decarboxylase from Synechococcus elongates 6301 where the first 29 amino acids at the n-terminus has been removed, SEQ ID NO: 3 … (protein)
chain: MQTQTWRSLSNVVWGKDLPAFSYPFSKTPLVDYDGGVTKQVGTYNFPVSKGMAGVYMTLKPGAIRELHWHANAAEWAYVIEGRTRVTLTNPDGQVQIADVDQGGLWYFPRGWGHSIEGIGPGTAKFLLVFNDGTFSEGATFSITDWLSHTPISWVQQNFGWSQDEVEKLPKKQVYISRYNPEVKPLDKTQSRNPKVSRIVLPYTHNLLAEKPRTSQAGNTLKLASAKEFPASFNMAGALLRLEPGAMRQLHWHPNADEWQYVLNGSMDLAVFASEGKASMSRLQKGDVGYVPKGYGHALRNSSDQPLDVLIVFNDGDYQSIDLNDWIMSNPNTVLDDVFQLSPQLLDKLPKESEILIPRS
notes: start Met followed by residues 31-389), recombinant in E. coli
For the molecule B2, in series [10], the Km was found to be 200 µM, the kcat came to 15.4 s⁻¹ and the kcat/Km is 77000 M⁻¹ s⁻¹.

B3: Bcl, oxalate decarboxylase from Bacillus clausii, SEQ ID NO: 41 (Shouchella clausii KSM-K16) (protein)
chain: MKRGDNVKPLKGNPNIPQPIRADGAGGVDRGPRNLMRDLQNPNILVPPETDRGLIPNLRFSFSDAHMQLNHGGWSREITQRDLPIATTLAGVNMSLTPGGVRELHWHKQAEWSYMLLGHARITAVDQNGRNFIADVGPGDLWYFPPGIPHSIQGLDDGCEFLLVFDDGMFSDLSTLSLSDWMAHTPKDVLSANFGVPESVFATIPTEQVYIYQDEVPGPLQSQQINSPYGAVPQTFKHELLKQPPLVTPGGSVRIVDSRNFPVSKTIAAALVEVEPGAMREMHWHPNNDEWQYYLTGQARMTVFTGNGVARTFDYRAGDVGYVPFATGHYIQNTGNESVWFLEMFKSDRFEDVSLNQWLALTPTELVQHNIHVDSKFTNKLRKEKWPVVKYPTI
Regarding B3, in [11], the Km came to 1200 µM, the kcat was 1.05 s⁻¹ and the kcat/Km stood at 871 M⁻¹ s⁻¹.
